Data taken from patent publication US20100280061A1, “NOVEL ANALGESIC THAT BINDS FILAMIN A” (priority 2009, published 2010).

Key:
mu opiate receptor (MOR) = biological target: T1, mu opiate receptor (MOR) (Rattus norvegicus, UniProt P33535); experiment: [35S]GTPγS binding assay using striatal membranes (MOR agonist activity); format: biochemical; design: MOR agonist activity, [35S]GTPγS binding to Gαo, 0.1 μM / MOR agonist activity, [35S]GTPγS binding to Gαo, 1 μM / MOR agonist activity, [35S]GTPγS binding to Gαo, 1 μM + BFNA: reference not given here; conditions: for MOR agonist activity, [35S]GTPγS binding to Gαo, 0.1 μM: 0.1 μM compound; for MOR agonist activity, [35S]GTPγS binding to Gαo, 0.1 μM / MOR agonist activity, [35S]GTPγS binding to Gαo, 1 μM: striatal membranes; for MOR agonist activity, [35S]GTPγS binding to Gαo, 1 μM + BFNA: 1 μM compound + 1 μM β-funaltrexamine; for MOR agonist activity, [35S]GTPγS binding to Gαo, 1 μM: 1 μM compound
T1 construct: from tissue; host or cells: striatal tissue (membrane preparation)
T1 sequence (P33535 whole entry): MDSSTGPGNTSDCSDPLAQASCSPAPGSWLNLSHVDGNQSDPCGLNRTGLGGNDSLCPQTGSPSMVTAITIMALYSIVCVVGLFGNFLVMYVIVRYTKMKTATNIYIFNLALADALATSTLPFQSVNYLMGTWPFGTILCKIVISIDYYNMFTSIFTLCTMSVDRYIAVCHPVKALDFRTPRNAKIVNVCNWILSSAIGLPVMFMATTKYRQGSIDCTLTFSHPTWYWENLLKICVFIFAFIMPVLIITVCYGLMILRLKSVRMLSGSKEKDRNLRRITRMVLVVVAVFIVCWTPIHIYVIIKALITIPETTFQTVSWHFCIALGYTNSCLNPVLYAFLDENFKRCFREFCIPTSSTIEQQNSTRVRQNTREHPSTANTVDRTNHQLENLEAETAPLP
Protocol: To assess the mu opiate receptor (MOR) agonist activity of positive compounds from the FLNA screening, compounds were tested in a [^35S]GTPγS binding assay using striatal membranes. Our previous study has shown that in striatal membranes, activation of MOR leads to an increase in [^35S]GTPγS binding to Gαo (Wang et al., 2005 Neuroscience 135:247-261).
Striatal tissue was homogenized in 10 volumes of ice cold 25 mM HEPES buffer, pH 7.4, which contained 1 mM EGTA, 100 mM sucrose, 50 μg/ml leupeptin, 0.04 mM PMSF, 2 μg/ml soybean trypsin inhibitor and 0.2% 2-mercaptoethanol. The homogenates were centrifuged at 800×g for 5 minutes and the supernatants were centrifuged at 49,000×g for 20 minutes. The resulting pellets were suspended in 10 volume of reaction buffer, which contained 25 mM HEPES, pH 7.5, 100 mM NaCl, 50 μg/ml leupeptin, 2 μg/ml soybean trypsin inhibitor, 0.04 mM PMSF and 0.02% […].
The resultant striatal membrane preparation (200 μg) was admixed and maintained (incubated) at 30° C. for 5 minutes in reaction buffer as above that additionally contained 1 mM MgCl2 and 0.5 nM [^35S]GTPγS (0.1 μCi/assay, PerkinElmer Life and Analytical Sciences) in a total volume of 250 μl and continued for 5 minutes in the absence or presence of 0.1-10 μM of an assayed compound of interest. The reaction was terminated by dilution with 750 μl of ice-cold reaction buffer that contained 20 mM MgCl2 and 1 mM EGTA and immediate centrifugation at 16,000×g for 5 minutes.
The resulting pellet was solubilized by sonicating for 10 seconds in 0.5 ml of immunoprecipitation buffer containing 0.5% digitonin, 0.2% sodium cholate and 0.5% NP-40. Normal rabbit serum (1 μl) was added to 1 ml of lysate and incubated at 25° C. for 30 minutes. Nonspecific immune complexes were removed by incubation with 25 μl of protein A/G-conjugated agarose beads at 25° C. for 30 minutes followed by centrifugation at 5,000×g at 4° C. for 5 minutes. The supernatant was divided and separately incubated at 25° C. for 30 minutes with antibodies raised against Gαo proteins (1:1,000 dilutions).
The immunocomplexes so formed were collected by incubation at 25° C. for 30 minutes with 40 μl of agarose-conjugated protein A/G beads and centrifugation at 5,000×g at 4° C. for 5 minutes. The pellet was washed and suspended in buffer containing 50 mM Tris-HCl, pH 8.0, and 1% NP-40. The radioactivity in the suspension was determined by liquid scintillation spectrometry. […] DAMGO (H-Tyr-D-Ala-Gly-N-MePhe-Gly-OH; 1 or 10 μM) was used as a positive control.

[1] = biological target: Bn-VAKGL pentapeptide of filamin A (FLNA) (Homo sapiens, UniProt P21333); experiment: FITC-NLX-based FLNA screening assay (FLNA peptide binding assay); conditions: 10 nM FITC-NLX; for Percent inhibition of FITC-NLX binding, 0.01 μM: 0.01 μM compound; for Percent inhibition of FITC-NLX binding, 0.1 μM: 0.1 μM compound; for Percent inhibition of FITC-NLX binding, 1 μM: 1 μM compound
Protocol: The final assay volume is 100 μl.
Compounds are tested in triplicate or quadruplicate.

Compound | MOR agonist activity, [35S]GTPγS binding to Gαo, 0.1 μM (mu opiate receptor (MOR)) | MOR agonist activity, [35S]GTPγS binding to Gαo, 1 μM + BFNA (mu opiate receptor (MOR)) | MOR agonist activity, [35S]GTPγS binding to Gαo, 1 μM (mu opiate receptor (MOR)) | Percent inhibition of FITC-NLX binding, 0.01 μM [1] | Percent inhibition of FITC-NLX binding, 0.1 μM [1] | Percent inhibition of FITC-NLX binding, 1 μM [1] | % DAMGO + BFNA (mu opiate receptor (MOR); 1 μM + BFNA, relative to DAMGO + BFNA)
CCOc1ccc(C(=O)CC2c3c(cc4c(c3OC)OCO4)CC[N+]2(C)C)cc1F (stereo not shown) [B0020] | 51.6% | 24.9% | 181.6% | 38.1% | 45.5% | 50.6% | –
COc1c2c(cc3c1C(CC(=O)CCc1ccccc1)N(C)CC3)OCO2 (stereo not shown) [B0050] | 98.2% | 48.8% | 211.0% | 29.2% | 34.5% | 39.8% | –
COc1ccc(CC(=O)CC2c3c(cc4c(c3OC)OCO4)CC[N+]2(C)C)c(OC)c1 (stereo not shown) [B0029] | 171.9% | 17.6% | 210.3% | 33.4% | 42.9% | 50.2% | –
COc1cccc(CC(=O)CC2c3c(cc4c(c3OC)OCO4)CC[N+]2(C)C)c1OC (stereo not shown) [B0038] | 147.5% | 117.1% | 205.3% | 41.2% | 50.1% | 57.0% | –
COc1c2c(cc3c1C(CC(=O)c1ccc(C#N)cc1)[N+](C)(C)CC3)OCO2 (stereo not shown) [B0001] | 128.2% | 28.0% | 202.3% | – | – | – | –
COc1ccc(CCCCC2c3c(cc4c(c3OC)OCO4)CC[N+]2(C)C)cc1 (stereo not shown) [B0056] | 174.7% | 41.8% | 288.8% | – | – | – | –
COc1c2c(cc3c1C(CC(=O)c1cccc(C(F)(F)F)c1)[N+](C)(C)CC3)OCO2 (stereo not shown) [B0006] | 77.0% | 18.6% | 131.3% | – | – | – | –
COc1c2c(cc3c1C(CC(=O)c1ccc(N4CCOCC4)cc1)[N+](C)(C)CC3)OCO2 (stereo not shown) [B0004] | 170.3% | 72.0% | 231.7% | – | – | – | 110.0%
COc1c2c(cc3c1C(CC(=O)Cc1ccccc1C)N(C)CC3)OCO2 (stereo not shown) [B0053] | 160.2% | 134.3% | 299.8% | – | – | – | –
COc1c2c(cc3c1C(CC(=O)Cc1ccccc1F)[N+](C)(C)CC3)OCO2.[I-] (stereo not shown) [B0055] | 162.1% | 117.5% | 338.5% | – | – | – | –
COc1ccc(CCC(=O)CC2c3c(cc4c(c3OC)OCO4)CCN2C)cc1 (stereo not shown) [B0047] | 187.8% | 68.4% | 235.6% | – | – | – | –
COc1cc(F)ccc1C(=O)CC1c2c(cc3c(c2OC)OCO3)CC[N+]1(C)C (stereo not shown) [B0007] | 168.3% | 64.5% | 223.3% | – | – | – | –
